{"source": "patent US12465609B2", "about": "“Methods of treating patients suffering from a disease condition or disorder that is associated with an increased glutamate level” (veriNOS operations GmbH, priority 2022, dated 2025)", "key": {"[1]": {"system": "patients with acute moderate and severe TBI", "experiment": "NOSTRA III phase III trial, clinical outcome (eGOS, therapy intensity level) in TBI patients", "type": "in vivo, human", "settings": "for proportion of low TIL levels (3-10 points): patients of 18-39 years; for eGOS median at 6 months: placebo 5", "experimental": "Based on the results of the earlier phase II study, the NOSTRA III (NO Synthase in TRAumatic Brain Injury) phase III trial was designed to detect clinically relevant differences in clinical outcome (Extended Glasgow Outcome Score at 6 months after injury) as primary endpoint. In addition, the extracellular intracerebral glutamate levels and lactate levels of these TBI patients were also determined in an exploratory approach to monitor the metabolic state of the patients.\nTrials. 2020. A total of 224 evaluable patients with moderate and severe TBI were enrolled in 32 centres in Austria, France, Germany, Spain, and United Kingdom. The trial started on 24 Aug. 2016 with last-patient last-visit on 17 Jun. 2020.\nPatients between 18 and 60 years of age with Glasgow Coma Score ≥3 requiring intracranial pressure (ICP) monitoring were enrolled. Other inclusion criteria were TBI within the last 18 hours but at least 6 hours after the injury, which were expected to survive more than 24 hours after admission.\nThe eGOS was determined by a face to face meeting by trained assessors.\nThe null-hypothesis of no shift across the 8 ordered categories of eGOS for the two treatment groups was tested after six months based on a proportional odds model stratified by age (18-39 years and 40-60 years). […] Treatment and age (18-39 years and 40-60 years) were included in the model. The proportional odds assumption was tested using a Chi-Square Score Test.\nThe main objective of the post hoc analyses was to estimate the effect size of VAS203 compared with placebo for the primary endpoint eGOS-I (eGOS-Interview) in the subgroups time to infusion ≤12 hours and >12 hours. Supportive analyses were conducted by age group (<40 years, ≥40 years) because age group was used as a stratification factor in the study. Comparability between treatment groups regarding demographics as well as severity and location of disease was investigated using similar methods as in the main CSR.\nThe proportions of patients per eGOS-I level at 3 months and at 6 months were calculated. For the change in eGOS-I over time, the proportion of patients with changes from 3 to 6 months were calculated by eGOS-I level, and in addition categorised as decreased (i.e. any decrease in eGOS-I level from 3 to 6 months), unchanged (i.e. no change in eGOS-I level from 3 to 6 months), and increased (i.e. any increase in eGOS-I level from 3 to 6 months).\nOrdinal logistic regression was used for the analysis of eGOS-I at 3 months and at 6 months, including treatment group and age group (<40 years, ≥40 years) as factors in the model. Estimated odds ratios for the comparison of the VAS203 and placebo groups of >1 mean that eGOS-I was higher in the VAS203 group than in the placebo group across the 8 levels, whereas odds ratios of <1 mean that eGOS-I was lower in the VAS203 group than in the placebo group. Odds ratios together with their 95% CIs were used to estimate and assess the size of the treatment effect of VAS203 compared to placebo. Proportional […] were assumed as valid for all these analyses because ordinal logistic regression analysis is known to be robust against deviations from this assumption; also, the power of assumption checking would be low for small subgroups.\nBased on the time-dependent activation of pathologic cascades during the early phase after TBI and the benefits observed with an infusion of VAS203 during the initial 12 hours after TBI in the Phase IIa trial [Stover], a post-hoc-analysis was performed to determine whether patients in whom VAS203 was infused ≤12 hours after TBI, show better clinical improvement compared to patients in whom infusion was started >12 hours after TBI."}, "[2]": {"system": "extracellular brain glutamate level", "experiment": "Brain microdialysis, extracellular cerebral glutamate levels in TBI patients", "type": "in vivo, human", "experimental": "To monitor the metabolic condition of the patients, extracellular brain glutamate and lactate levels were measured. In more detail, the extracellular intracerebral glutamate and lactate levels measured here is the glutamate or lactate level in brain extracellular fluid (ECF). […] The measurements of the glutamate and lactate levels was carried out using established brain microdialysis (MD) methodology as described, for example, by Chamoun et al, example. Role of extracellular glutamate measured by cerebral microdialysis in severe traumatic brain injury. J Neurosurg. 2010 September; 113(3): 564-570.\nThe microdialysis (MD) equipment was obtained from M Dialysis AB, Stockholm, Sweden, see www.mdialysis.com. The following equipment was used. • Cerebral MD catheters: CMA 70 • CMA 70 bolt catheter • CMA 71 high cut-off cerebral catheter • Pumps: CMA106=fixed flow rate, CMA107=flexible flow rate • Perfusion solution: Cerebral: Perfusion fluid CNS • Analyzers: CMA 600, ISCUS, ISCUSflex Time Point of MD Catheter Insertion • Aim: Obtain stable baseline values before infusing study drug • Ideal: By 14 hours after TBI or 4 hours before study drug infusion to allow for tissue adaptation, usually lasting 1-4 hours • Compromise: As soon as possible, within 4 hours after beginning study drug infusion Site of Cerebral MD Catheter Insertion • Aim: Monitor metabolic changes close to structural damage visible on routine CT scan • Contusion: Close to the contusion • Mixed lesions: Predominantly injured hemisphere • With bolt system: Right or left frontal lobe • Without bolt system: Right or left frontal/temporal/parietal area • If possible cerebral MD catheter should be placed ipsilateral to the ICP probe • Special care should be taken to avoid inducing injury to pre- and postcentral cortex • The position of the MD probe and the position of the ICP probe in the eCRF should be indicated.\nThe cerebral glutamate and lactate levels were recorded every 1 h up to 5 days after the start of the infusion. Absolute values were be summarized per treatment group and for each time point by means of descriptive statistics. The 95% confidence intervals for the mean were calculated (normal approximation).\nFor the analysis of the metabolic state, it was considered that under normal (physiological) conditions glutamate is maintained at low levels (micromolar) in the extracellular space (<2 μmol/L) and in plasma (50-100 μmol/L) to avoid excessive glutamate receptor activation. Within the different intracellular compartments glutamate is present in higher amounts (5-15 millimolar). In brain microdialysis, glutamate levels exceeding 10 μmol/L are considered elevated, higher glutamate levels are associated with worse outcome. In addition to the absolute levels, dynamic changes are also important in interpreting underlying pathology. In brain microdialysis and blood, lactate levels exceeding 2.5 millimol/L are considered pathologically elevated, reflecting insufficient metabolic/energetic stability which is further aggravated by insufficient oxygen supply."}}}
{"compound": "C[C@H](O)[C@H](O)C1CNc2nc(N)nc(N)c2N1", "note": "(mixture of isomers) [Ronopterin, 4-Amino-(6R,S)-5,6,7,8-tetrahydro-L-biopterin]", "values": [{"measurement": "proportion of patients with Good Recovery", "setting": "[1]; 18-39 years, late infusion >12 hours, placebo 38%", "value": 30, "unit": "%"}, {"measurement": "proportion of patients with Good Recovery", "setting": "[1]; 40-60 years, late infusion >12 hours, placebo 19%", "value": 20, "unit": "%"}, {"measurement": "proportion of patients with Good Recovery", "setting": "[1]; patients aged 18-39 years, early infusion ≤12 hours, placebo 32%", "value": 45, "unit": "%"}, {"measurement": "proportion of patients with Good Recovery", "setting": "[1]; patients aged 40-60 years, early infusion, placebo 8%", "value": 27, "unit": "%"}, {"measurement": "proportion of low TIL levels (3-10 points)", "setting": "[1]; second week after TBI, placebo 64%, p=0.0002", "value": 81, "unit": "%"}, {"measurement": "proportion of low TIL levels (3-10 points)", "setting": "[1]; placebo 62%, p=0.01", "value": 71, "unit": "%"}, {"measurement": "NNT for Good Recovery", "setting": "[1]; time to infusion <12 hours", "value": 8}, {"measurement": "increase of proportion of patients with a Good Recovery at 6 months compared to the Placebo group", "setting": "[1]; time to infusion <12 hours", "value": 61, "unit": "%"}, {"measurement": "proportion of patients with Good Recovery (eGOS 7 and 8)", "setting": "[1]; time to infusion <12 hours, placebo 23%, ns", "value": 37, "unit": "%"}, {"measurement": "eGOS median at 6 months", "setting": "[1]; time to infusion >12 hours", "value": 5}, {"measurement": "proportion of patients with Good Recovery at 6 months", "setting": "[1]; time to infusion >12 hours, placebo 28%", "value": 25, "unit": "%"}, {"measurement": "eGOS median at 6 months", "setting": "[1]; time to infusion ≤12 hours, not significant", "value": 6}, {"measurement": "overall eGOS-I rating at 6 months vs placebo (primary efficacy endpoint)", "setting": "[1]; total dose 17 mg/kg infused for 48 hours, ordinal logistic regression", "value": "No difference"}, {"measurement": "extracellular cerebral glutamate level", "setting": "[2]; 18 to 39 years, infusion >12 hours after TBI, majority of patients, essentially the same as placebo (FIG. 5E)", "value": "< 10", "unit": "µmol/L"}, {"measurement": "extracellular cerebral glutamate level", "setting": "[2]; 18 to 39 years, infusion ≤12 h after TBI, all patients (FIG. 5B)", "value": "< 10", "unit": "µmol/L"}, {"measurement": "extracellular cerebral glutamate level", "setting": "[2]; 40 to 60 years, infusion >12 hours after TBI, majority of the patients (FIG. 6B)", "value": "< 10", "unit": "µmol/L"}, {"measurement": "extracellular cerebral glutamate level", "setting": "[2]; 40 to 60 years, infusion ≤12 h after TBI, no placebo group, not all patients <10 μmol/L (FIG. 6A)", "value": "partially lowered brain glutamate levels"}, {"measurement": "extracellular brain glutamate levels after infusion", "setting": "[2]; TBI patients, within 12 hours after start of the administration", "value": "less than 10 μmol/L"}, {"measurement": "passage of the human blood brain barrier", "setting": "[2]; inferred from Example 4", "value": "passes the human blood brain barrier"}, {"measurement": "extracellular cerebral glutamate level", "setting": "[2]; patients aged 18 to 39 years, all times to infusion, all patients, up to 108 hours (FIG. 4B)", "value": "< 10", "unit": "µmol/L"}, {"measurement": "extracellular cerebral glutamate level", "setting": "[2]; patients aged 40 to 60 years, all times to infusion, majority of patients (FIG. 4E)", "value": "< 10", "unit": "µmol/L"}]}
